Experimental findings from US20230151034A1 (COCRYSTAL PHARMA, INC., priority 2020, published 2023) are described below.

Assay [1] has as its target SARS2 protease (Severe acute respiratory syndrome coronavirus 2, UniProt P0DTD1). As to the kind of experiment: SARS-CoV-2 protease inhibition assay (SARS2 FRET protease assay). Format: biochemical. The note with it: Table E; SARS-CoV-2 protease inhibition; read-out: IC50. The gist of the method: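 SARS-CoV-2 protease (25 nM) was incubated for 30 min at 30 °C with 1.3 μM quenched 5-FAM/TAMRA peptide substrate and compound (3-fold dilutions, 20 μM–1.0 nM). The buffer was 20 mM HEPES-Na pH 7, 120 mM NaCl, 0.4 mM EDTA, 0.01% Triton, 5% glycerol and 4 mM DTT. Fluorescence was read at ex 473 and em 519 nm, and IC50 was derived.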

Assay [2] has as its target HuNV GGII.4 Norovirus protease (Norovirus GII.4 (human norovirus genogroup II genotype 4), UniProt P54634). As to the kind of experiment: Norovirus protease FRET assay (HuNV GGII.4). Format: biochemical. The settings on record: FRET protease assay, read-out: HuNV GGII.4 IC50.
For assay [3], the target named is Norwalk GGI.1 Norovirus protease (Norovirus, UniProt Q83883). In words: Noro-Norwalk FRET protease assay (Norwalk GGI.1). Format: biochemical, Norwalk virus. The note with it: FRET protease assay, read-out: Norwalk GGI.1 IC50. On the procedure: Viral protease assays: The antiviral activities of inhibitors were determined by FRET (Fluorescence Resonance Energy Transfer) assay. Purified viral protease was incubated with the protease substrate peptide (Edans-DFHLQ/GP-Dabcyl) and inhibitor, and IC50 values were subsequently determined by the fluorescence signals.
The Noro-Norwalk FRET protease assay was performed in 50 mM HEPES-Na pH 8, 50 mM NaCl, 0.4 mM EDTA, 4% glycerol, and 6 mM DTT. A self-quenching peptide substrate [5-FAM]-[…]-[TAMRA] was custom synthesized by Anaspec. Compounds were diluted in 3-fold serial dilutions to final concentrations of 200 μM to 10.2 nM. Noro protease was added to a final concentration of 1-7 μM, depending on the enzyme activity level, and the peptide substrate was added to a final concentration of 10 μM. The assay was incubated 90 minutes at 37° C. and read in a Perkin Elmer Envision with excitation at 473 nm and emission measurement at 519 nm.

Read-outs that look alike come from different tables or passages of the source.

HuNV GGII.4 Norovirus protease, sequence (P54634 1009-1189): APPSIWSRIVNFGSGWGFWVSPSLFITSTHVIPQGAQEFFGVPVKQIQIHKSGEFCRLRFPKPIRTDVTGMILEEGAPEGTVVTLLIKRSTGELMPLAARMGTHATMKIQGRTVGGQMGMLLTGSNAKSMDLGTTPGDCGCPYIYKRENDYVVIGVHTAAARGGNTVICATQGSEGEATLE
Norwalk GGI.1 Norovirus protease, sequence (Q83883 1101-1281): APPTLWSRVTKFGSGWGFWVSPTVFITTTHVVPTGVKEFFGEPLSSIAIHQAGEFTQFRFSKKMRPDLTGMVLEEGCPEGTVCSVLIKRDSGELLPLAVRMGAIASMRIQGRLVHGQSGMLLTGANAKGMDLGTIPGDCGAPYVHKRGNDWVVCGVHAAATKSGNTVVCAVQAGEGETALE

`O=C[C@H](CCC(=O)N1CCOC(c2ccccc2)C1)NC(=O)[C@H](CC1CCCCC1)NC(=O)OCc1cccc(Cl)c1` (stereo in doubt) [Compound A45, 3-Chlorobenzyl ((2S)-3-cyclohexyl-1-(((2S)-1,5-dioxo-5-(2-phenylmorpholino)pentan-2-yl)amino)-1-oxopropan-2-yl)carbamate]: the concentration for half-maximal inhibition (IC50) was > 200 µM in assay [1], 18.8 µM in assay [2] (Table C) and 11 µM in assay [3] (Table C).

In the case of `CCOP(=O)(OCC)C(O)[C@H](CCC(=O)N(C)CCNS(=O)(=O)CC)NC(=O)[C@H](CC1CCCCC1)NC(=O)OCc1cccc(Cl)c1` (stereo partly drawn) [Compound A22], the IC50 is 2.3 µM in assay [1], > 200 µM in assay [2] (Table C) and 143 µM in assay [3] (Table C).

On to `CN(Cc1ccccc1)C(=O)CC[C@@H](C=O)NC(=O)[C@H](CC1CCCCC1)NC(=O)OCc1cccc(Cl)c1` [Compound A18, 3-Chlorobenzyl ((S)-1-(((S)-5-(benzyl (methyl)amino)-1,5-dioxopentan-2-yl)amino)-3-cyclohexyl-1-oxopropan-2-yl) carbamate], for which the IC50 was > 200 µM in assay [1], 14.5 µM in assay [2] (Table C) and 2.7 µM in assay [3] (Table C).

As for `CCOC(=O)NCCN(C)C(=O)CC[C@@H](C=O)NC(=O)[C@H](CC1CCCCC1)NC(=O)OCc1cccc(Cl)c1` (stereo in doubt) [Compound A44, Ethyl ((5S,8S)-1-(3-chlorophenyl)-5-(cyclohexylmethyl)-8-formyl-12-methyl-3,6,11-trioxo-2-oxa-4,7,12-triazatetradecan-14-yl)carbamate], the IC50 in assay [1] is > 200 µM; in assay [2] (Table C), 28.6 µM; in assay [3] (Table C), 10.7 µM.

With `CCNC(=O)OCCN(C)C(=O)CC[C@@H](C=O)NC(=O)[C@H](CC1CCCCC1)NC(=O)OCc1cccc(Cl)c1` (stereo in doubt) [Compound A46, 3-Chlorobenzyl ((12S, 15S)-16-cyclohexyl-12-formyl-8-methyl-4,9,14-trioxo-5-oxa-3,8,13-triazahexadecan-15-yl)carbamate], the IC50 was > 200 µM in assay [1], 28 µM in assay [2] (Table C) and 8.6 µM in assay [3] (Table C).

Regarding `CON(C)C(=O)[C@H](CCC(=O)N1CCCC(c2ccccc2)C1)NC(=O)[C@H](CC1CCCCC1)NC(=O)OCc1cccc(Cl)c1` (stereo in doubt) [Compound A43, 3-chlorobenzyl ((2S)-3-cyclohexyl-1-(((2S)-1-(methoxy(methyl)amino)-1,5-dioxo-5-(3-phenylpiperidin-1-yl)pentan-2-yl)amino)-1-oxopropan-2-yl)carbamate], the IC50 is 185 µM in assay [1], > 200 µM in assay [2] (Table C) and 135 µM in assay [3] (Table C).

For the compound `CCOP(=O)(OCC)C(O)[C@H](CCC(=O)N(C)CCc1ccc(Cl)cc1)NC(=O)C(CC1CCCCC1)NC(=O)OCc1cccc(Cl)c1` (stereo in doubt) [Compound A40, 3-Chlorobenzyl ((2S)-1-(((2S)-5-((4-chlorophenethyl)(methyl)amino)-1-(diethoxyphosphoryl)-1-hydroxy-5-oxopentan-2-yl)amino)-3-cyclohexyl-1-oxopropan-2-yl)carbamate], the IC50 in assay [1] is > 200 µM; in assay [2] (Table C) it was 199 µM; in assay [3] (Table C) it was 117 µM.

For the compound `CCOP(=O)(OCC)C(O)[C@H](CCC(=O)N(C)CCc1ccccc1)NC(=O)[C@H](CC1CCCCC1)NC(=O)OCc1cccc(Cl)c1` (stereo partly drawn) [Compound A15, 3-Chlorobenzyl ((2S)-3-cyclohexyl-1-(((2S)-1-(diethoxyphosphoryl)-1-hydroxy-5-(methyl(phenethyl)amino)-5-oxopentan-2-yl)amino)-1-oxopropan-2-yl)carbamate], the IC50 is > 200 µM in assay [1], 139 µM in assay [2] (Table C) and > 200 µM in assay [3] (Table C).

As to `CCOP(=O)(OCC)C(O)[C@H](CCC(=O)N1CCOC(c2ccccc2)C1)NC(=O)[C@H](CC1CCCCC1)NC(=O)OCc1cccc(Cl)c1` (stereo partly drawn) [Compound A54, 3-Chlorobenzyl ((2S)-3-cyclohexyl-1-(((2S)-1-(diethoxyphosphoryl)-1-hydroxy-5-oxo-5-(2-phenylmorpholino)pentan-2-yl)amino)-1-oxopropan-2-yl)carbamate], the values for the IC50 in assay [1], in assay [2] (Table C) and in assay [3] (Table C) were 19 µM, 161 µM and 36.3 µM, respectively.

Regarding `CCOCCN(C)C(=O)CC[C@H](NC(=O)C(CC1CCCCC1)NC(=O)OCc1cccc(Cl)c1)C(O)P(=O)(OCC)OCC` (stereo in doubt) [Compound A12, 3-chlorobenzyl ((2S)-3-cyclohexyl-1-(((2S)-1-(diethoxyphosphoryl)-5-((2-ethoxyethyl)(methyl)amino)-1-hydroxy-5-oxopentan-2-yl)amino)-1-oxopropan-2-yl)carbamate], the figures for the IC50 in assay [1], in assay [2] (Table C) and in assay [3] (Table C) were 5.4 µM, > 200 µM and 122 µM, respectively.

In the case of `CCCCCN(C)C(=O)CC[C@@H](C=O)NC(=O)[C@H](CC1CCCCC1)NC(=O)OCc1cccc(Cl)c1` [Compound A7, 3-chlorobenzyl ((S)-3-cyclohexyl-1-(((S)-5-(methyl(pentyl)amino)-1,5-dioxopentan-2-yl)amino)-1-oxopropan-2-yl)carbamate], the IC50 in assay [1] came to 3.2 µM; in assay [2] (Table C) it was 11.1 µM; in assay [3] (Table C), 1.6 µM.

`CCOCCOCCN(C)C(=O)CC[C@@H](C=O)NC(=O)[C@H](CC1CCCCC1)NC(=O)OCc1cccc(Cl)c1` [Compound A25, 3-Chlorobenzyl ((13S,16S)-17-cyclohexyl-13-formyl-9-methyl-10,15-dioxo-3,6-dioxa-9,14-diazaheptadecan-16-yl)carbamate]: the figures for the 50% inhibitory concentration (IC50) in assay [1], in assay [2] (Table C) and in assay [3] (Table C) were > 200 µM, 39.4 µM and 17.2 µM, respectively.

`CCCCCCCC1CCC/C=C/CC(C(=O)N(C)C)C[C@@H](C=O)NC(=O)C(CC(C)C)NC1=O` (stereo partly drawn) [Compound B4]: the IC50 was 156 µM in assay [1], 149 µM in assay [2] (Table D) and 149 µM in assay [3] (Table D).

For the compound `CCNC(=O)CN(C)C(=O)CC[C@@H](C=O)NC(=O)[C@H](CC1CCCCC1)NC(=O)OCc1cccc(Cl)c1` [Compound A27, 3-Chlorobenzyl ((S)-3-cyclohexyl-1-(((S)-5-((2-(ethylamino)-2-oxoethyl) (methyl)amino)-1,5-dioxopentan-2-yl)amino)-1-oxopropan-2-yl)carbamate], the results for the IC50 in assay [1], in assay [2] (Table C) and in assay [3] (Table C) were 137 µM, 11.3 µM and 2.7 µM, respectively.

On to `CCOCCN(C)C(=O)CC[C@@H](C=O)NC(=O)[C@H](CC1CCCCC1)NC(=O)OCc1cccc(Cl)c1` [Compound A10, 3-chlorobenzyl ((S)-3-cyclohexyl-1-(((S)-5-((2-ethoxyethyl)(methyl)amino)-1,5-dioxopentan-2-yl)amino)-1-oxopropan-2-yl)carbamate], for which the IC50 in assay [1] was 0.98 µM; in assay [2] (Table C) it was 16.9 µM; in assay [3] (Table C), 3.6 µM.

In the case of `CN(CCc1ccc(Cl)cc1)C(=O)CC[C@@H](C=O)NC(=O)[C@H](CC1CCCCC1)NC(=O)OCc1cccc(Cl)c1` (stereo in doubt) [Compound A48, 3-Chlorobenzyl ((S)-1-(((S)-5-((4-chlorophenethyl)(methyl)amino)-1,5-dioxopentan-2-yl)amino)-3-cyclohexyl-1-oxopropan-2-yl)carbamate], the IC50 in assay [1] was found to be 31 µM; in assay [2] (Table C), 63 µM; in assay [3] (Table C) it was 8.7 µM.

On to `CCOCCOCCN(C)C(=O)CC[C@H](NC(=O)C(CC1CCCCC1)NC(=O)OCc1cccc(Cl)c1)C(O)P(=O)(OCC)OCC` (stereo in doubt) [Compound A11, 3-Chlorobenzyl ((13S,16S)-17-cyclohexyl-13-((diethoxyphosphoryl)(hydroxy)methyl)-9-methyl-10,15-dioxo-3,6-dioxa-9,14-diazaheptadecan-16-yl)carbamate], for which the IC50 in assay [1] was > 200 µM; in assay [2] (Table C) it was 114 µM; in assay [3] (Table C), 133 µM.
